Reference: US9340590B2 (priority 2011, dated 2016)
Like-named read-outs stand apart in the source and are kept apart here. Positions of bridges follow the written chain, without caps; N, C: chain ends. Non-standard residues stand in square brackets, D forms with d. Residues, ends and D or L forms follow the SMILES beside them. Groups on a side chain read outwards from the residue. 1Nal = N[C@@H](Cc1cccc2ccccc12)C(=O)O; 2Pal = N[C@@H](Cc1ccccn1)C(=O)O; 3Pal = N[C@@H](Cc1cccnc1)C(=O)O; Pra = C#CC[C@H](N)C(=O)O; Abu = CC[C@H](N)C(=O)O; Sar = CNCC(=O)O

Tests used:
hNav1.5 = hNav1.5 (Homo sapiens, UniProt Q14524); experiment: cell-based
Sequence of hNav1.5 (Q14524 whole entry, looked up): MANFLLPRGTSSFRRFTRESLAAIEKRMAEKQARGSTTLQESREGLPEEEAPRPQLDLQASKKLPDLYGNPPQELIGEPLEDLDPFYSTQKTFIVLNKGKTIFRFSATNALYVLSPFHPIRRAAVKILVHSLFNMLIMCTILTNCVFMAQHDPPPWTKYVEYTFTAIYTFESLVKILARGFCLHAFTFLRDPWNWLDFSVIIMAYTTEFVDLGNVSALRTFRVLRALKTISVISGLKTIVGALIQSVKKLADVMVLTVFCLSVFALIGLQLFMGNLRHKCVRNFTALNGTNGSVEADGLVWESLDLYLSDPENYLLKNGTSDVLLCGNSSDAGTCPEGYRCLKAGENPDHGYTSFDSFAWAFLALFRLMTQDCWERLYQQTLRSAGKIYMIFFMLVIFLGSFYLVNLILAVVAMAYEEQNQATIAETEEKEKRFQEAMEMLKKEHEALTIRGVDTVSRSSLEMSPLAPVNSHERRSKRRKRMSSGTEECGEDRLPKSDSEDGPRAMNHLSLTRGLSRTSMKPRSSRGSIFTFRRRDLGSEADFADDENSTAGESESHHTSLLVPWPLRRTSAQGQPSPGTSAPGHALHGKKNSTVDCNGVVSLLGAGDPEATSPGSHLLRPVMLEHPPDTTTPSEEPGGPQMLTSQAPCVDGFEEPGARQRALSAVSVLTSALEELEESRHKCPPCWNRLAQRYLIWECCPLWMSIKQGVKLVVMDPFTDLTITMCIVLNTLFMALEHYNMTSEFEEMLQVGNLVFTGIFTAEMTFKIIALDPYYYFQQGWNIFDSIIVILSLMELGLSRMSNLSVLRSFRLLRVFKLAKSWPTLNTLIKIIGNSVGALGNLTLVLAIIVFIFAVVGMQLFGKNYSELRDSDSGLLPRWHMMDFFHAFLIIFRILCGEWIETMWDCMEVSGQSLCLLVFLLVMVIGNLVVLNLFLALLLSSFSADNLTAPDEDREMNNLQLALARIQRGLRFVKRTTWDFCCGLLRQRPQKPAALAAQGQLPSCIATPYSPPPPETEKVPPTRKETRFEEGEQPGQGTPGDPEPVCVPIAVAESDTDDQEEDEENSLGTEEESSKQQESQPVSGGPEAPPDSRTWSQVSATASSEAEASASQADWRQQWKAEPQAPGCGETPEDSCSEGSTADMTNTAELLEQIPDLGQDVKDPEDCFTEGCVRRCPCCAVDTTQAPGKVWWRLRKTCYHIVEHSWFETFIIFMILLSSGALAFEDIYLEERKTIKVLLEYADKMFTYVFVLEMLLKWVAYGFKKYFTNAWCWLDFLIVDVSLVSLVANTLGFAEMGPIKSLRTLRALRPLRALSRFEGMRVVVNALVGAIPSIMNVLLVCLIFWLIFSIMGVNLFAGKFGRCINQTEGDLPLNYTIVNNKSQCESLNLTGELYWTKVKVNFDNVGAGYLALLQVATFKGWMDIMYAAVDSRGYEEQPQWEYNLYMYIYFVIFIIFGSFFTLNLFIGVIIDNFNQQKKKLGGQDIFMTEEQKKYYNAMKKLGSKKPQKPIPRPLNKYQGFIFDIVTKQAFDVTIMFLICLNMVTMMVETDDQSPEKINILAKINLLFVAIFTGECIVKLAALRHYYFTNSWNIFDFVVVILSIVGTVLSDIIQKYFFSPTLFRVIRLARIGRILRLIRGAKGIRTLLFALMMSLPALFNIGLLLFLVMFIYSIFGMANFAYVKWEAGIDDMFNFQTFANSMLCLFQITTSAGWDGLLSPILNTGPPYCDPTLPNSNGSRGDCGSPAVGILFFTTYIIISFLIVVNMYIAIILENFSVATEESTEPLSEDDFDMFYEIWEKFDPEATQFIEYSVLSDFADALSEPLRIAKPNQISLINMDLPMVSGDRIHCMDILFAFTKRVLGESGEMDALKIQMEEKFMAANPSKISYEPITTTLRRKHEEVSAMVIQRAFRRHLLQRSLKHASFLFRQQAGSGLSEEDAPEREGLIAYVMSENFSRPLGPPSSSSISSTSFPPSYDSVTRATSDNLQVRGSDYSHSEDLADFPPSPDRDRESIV

hNav1.7 = hNav1.7 (Homo sapiens, UniProt Q15858); experiment: cell-based
Sequence of hNav1.7 (Q15858 whole entry, looked up): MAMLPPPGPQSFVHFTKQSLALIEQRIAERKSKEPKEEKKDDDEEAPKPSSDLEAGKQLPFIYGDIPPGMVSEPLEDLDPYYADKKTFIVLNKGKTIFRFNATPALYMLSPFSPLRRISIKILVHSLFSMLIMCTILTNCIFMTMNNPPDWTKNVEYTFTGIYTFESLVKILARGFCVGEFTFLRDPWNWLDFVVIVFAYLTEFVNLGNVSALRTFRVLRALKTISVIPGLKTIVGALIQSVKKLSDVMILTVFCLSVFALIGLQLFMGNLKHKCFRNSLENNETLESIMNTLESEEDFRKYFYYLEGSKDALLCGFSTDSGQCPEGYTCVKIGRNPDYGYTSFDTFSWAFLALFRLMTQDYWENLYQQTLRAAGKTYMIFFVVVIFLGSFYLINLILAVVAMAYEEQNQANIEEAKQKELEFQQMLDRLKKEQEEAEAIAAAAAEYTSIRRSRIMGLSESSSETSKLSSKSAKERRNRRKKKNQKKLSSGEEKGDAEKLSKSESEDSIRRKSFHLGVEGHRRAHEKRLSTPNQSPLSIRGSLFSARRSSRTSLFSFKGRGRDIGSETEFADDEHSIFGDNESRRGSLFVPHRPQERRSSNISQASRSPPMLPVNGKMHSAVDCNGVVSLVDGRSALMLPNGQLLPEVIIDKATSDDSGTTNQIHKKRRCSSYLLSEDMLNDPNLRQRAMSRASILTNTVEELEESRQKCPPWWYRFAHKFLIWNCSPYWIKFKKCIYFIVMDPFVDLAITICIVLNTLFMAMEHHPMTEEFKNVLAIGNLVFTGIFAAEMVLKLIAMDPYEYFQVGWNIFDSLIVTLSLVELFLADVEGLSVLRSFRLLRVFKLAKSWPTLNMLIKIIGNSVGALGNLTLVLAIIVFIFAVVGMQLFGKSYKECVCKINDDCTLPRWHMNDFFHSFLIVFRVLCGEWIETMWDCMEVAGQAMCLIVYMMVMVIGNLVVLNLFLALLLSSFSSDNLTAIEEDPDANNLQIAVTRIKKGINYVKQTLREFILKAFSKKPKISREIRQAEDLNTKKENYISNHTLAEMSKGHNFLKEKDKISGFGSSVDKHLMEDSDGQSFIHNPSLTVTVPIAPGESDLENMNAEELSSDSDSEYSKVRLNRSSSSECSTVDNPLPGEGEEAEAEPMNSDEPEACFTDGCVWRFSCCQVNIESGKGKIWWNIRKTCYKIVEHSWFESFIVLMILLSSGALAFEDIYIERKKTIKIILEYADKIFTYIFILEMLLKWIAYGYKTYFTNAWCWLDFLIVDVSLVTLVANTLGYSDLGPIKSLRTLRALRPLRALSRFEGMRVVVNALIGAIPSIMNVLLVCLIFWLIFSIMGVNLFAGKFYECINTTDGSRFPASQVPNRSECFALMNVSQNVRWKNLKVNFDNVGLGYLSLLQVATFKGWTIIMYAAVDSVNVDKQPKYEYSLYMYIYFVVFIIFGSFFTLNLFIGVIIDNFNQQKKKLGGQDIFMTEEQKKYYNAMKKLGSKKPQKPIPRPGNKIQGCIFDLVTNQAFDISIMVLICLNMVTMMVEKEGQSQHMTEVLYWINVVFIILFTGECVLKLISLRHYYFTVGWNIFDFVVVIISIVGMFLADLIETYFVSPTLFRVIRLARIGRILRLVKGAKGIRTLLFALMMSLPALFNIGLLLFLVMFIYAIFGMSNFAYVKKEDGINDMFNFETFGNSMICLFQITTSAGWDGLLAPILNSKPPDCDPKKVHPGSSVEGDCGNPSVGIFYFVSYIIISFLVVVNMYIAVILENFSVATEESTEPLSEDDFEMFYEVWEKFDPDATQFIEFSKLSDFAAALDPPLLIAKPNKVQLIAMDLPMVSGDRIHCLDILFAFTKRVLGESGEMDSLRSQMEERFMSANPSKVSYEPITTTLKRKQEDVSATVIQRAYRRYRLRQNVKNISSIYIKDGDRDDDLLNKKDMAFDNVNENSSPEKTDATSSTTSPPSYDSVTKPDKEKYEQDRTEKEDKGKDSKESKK

Row | Compound | IC50 (hNav1.5) | IC50 (hNav1.7; Nav1.7 Use IC50) | IC50 (hNav1.7; read-out: Nav1.7 Use IC50)
1 | CSCC[C@@H]1NC(=O)[C@H](C)NC(=O)CNC(=O)[C@H](CC(C)C)NC(=O)[C@@H](NC(=O)[C@@H](N)CC(=O)O)CSSC[C@@H]2NC(=O)[C@@H]3CSSC[C@@H](C(=O)N[C@@H](CCCCN)C(=O)N[C@@H](Cc4ccc(O)cc4)C(=O)N[C@H](C(=O)N[C@@H](Cc4ccccc4)C(N)=O)C(C)C)NC(=O)[C@H](Cc4c[nH]c5ccccc45)NC(=O)[C@H](CCCCN)NC(=O)[C@H](Cc4c[nH]cn4)NC(=O)[C@H]([C@@H](C)O)NC(=O)[C@H](CCCNC(=N)N)NC(=O)[C@H](CO)NC(=O)[C@H](CSSC[C@H](NC(=O)[C@H](CCCCN)NC(=O)[C@H](CCCNC(=N)N)NC1=O)C(=O)N[C@@H](CC(=O)O)C(=O)N1CCC[C@H]1C(=O)N[C@@H](CCC(=O)O)C(=O)N[C@@H](CC(N)=O)C(=O)N[C@@H](CC(=O)O)C(=O)N[C@@H](CCCCN)C(=O)N3)NC(=O)[C@H](C(C)C)NC(=O)[C@H](CC(C)C)NC(=O)[C@H](CC(N)=O)NC(=O)[C@@H]1CCCN1C(=O)[C@H](CCCNC(=N)N)NC2=O [[Ala5;Asp10;Glu12]GpTx-1(1-34)] (H-DCLGAMRKCDPENDKCCRPNLVCSRTHKWCKYVF-NH2; disulfide 2-17, 9-23, 16-30) | > 10000 nM | 554 nM | 
2 | C#CC[C@H](NC(C)=O)C(=O)NCCCC[C@@H]1NC(=O)[C@H](CC(=O)O)NC(=O)[C@@H]2CCCN2C(=O)[C@H]([C@@H](C)CC)NC(=O)[C@@H]2CSSC[C@@H]3NC(=O)[C@H](C(C)C)NC(=O)[C@H](CC(C)C)NC(=O)[C@H](CC(N)=O)NC(=O)[C@@H]4CCCN4C(=O)[C@H](CCCNC(=N)N)NC(=O)[C@H](CSSC[C@H](NC(=O)[C@@H](N)CC(=O)O)C(=O)N[C@@H](CC(C)C)C(=O)NCC(=O)N[C@@H](C)C(=O)N[C@@H](Cc4ccccc4)C(=O)N[C@@H](CCCNC(=N)N)C(=O)N[C@@H](CCCCN)C(=O)N2)NC(=O)[C@H](CSSC[C@@H](C(=O)N[C@@H](CCCCN)C(=O)N[C@@H](Cc2ccc(O)cc2)C(=O)N[C@H](C(=O)N[C@@H](Cc2ccccc2)C(N)=O)C(C)C)NC(=O)[C@H](Cc2c[nH]c4ccccc24)NC(=O)[C@H](CCCCN)NC(=O)[C@H](Cc2c[nH]cn2)NC(=O)[C@H]([C@@H](C)O)NC(=O)[C@H](CCCNC(=N)N)NC(=O)[C@H](CO)NC3=O)NC(=O)[C@H](CCCCN)NC(=O)[C@H](CC(=O)O)NC1=O [[Ala5;Phe6;K(Ac-Pra)13]GpTx-1(1-34)] (H-DCLGAFRKCIPDK([Pra-Ac])DKCCRPNLVCSRTHKWCKYVF-NH2; disulfide 2-17, 9-23, 16-30) | > 10000 nM | 11 nM | 
3 | CC[C@@H]1NC(=O)[C@H](CC(=O)O)NC(=O)[C@@H]2CCCN2C(=O)[C@H](CCC(=O)O)NC(=O)[C@@H]2CSSC[C@@H]3NC(=O)[C@H](C(C)C)NC(=O)[C@H](CC(C)C)NC(=O)[C@H](CC(N)=O)NC(=O)[C@@H]4CCCN4C(=O)[C@H](CCCNC(=N)N)NC(=O)[C@H](CSSC[C@H](NC(=O)[C@@H](N)CC(=O)O)C(=O)N[C@@H](CC(C)C)C(=O)NCC(=O)N[C@@H](C)C(=O)N[C@@H](Cc4ccccc4)C(=O)N[C@@H](CCCNC(=N)N)C(=O)N[C@@H](CCCCN)C(=O)N2)NC(=O)[C@H](CSSC[C@@H](C(=O)N[C@@H](CCCCN)C(=O)N[C@@H](Cc2ccc(O)cc2)C(=O)N[C@H](C(=O)N[C@@H](Cc2ccccc2)C(N)=O)C(C)C)NC(=O)[C@H](Cc2c[nH]c4ccccc24)NC(=O)[C@H](CCCNC(=N)N)NC(=O)[C@H](Cc2c[nH]cn2)NC(=O)[C@H](CC(C)C)NC(=O)[C@H](CCCNC(=N)N)NC(=O)[C@H](CO)NC3=O)NC(=O)[C@H](CCCCN)NC(=O)[C@H](CC(=O)O)NC1=O (H-DCLGAFRKCEPD[Abu]DKCCRPNLVCSRLHRWCKYVF-NH2; disulfide 2-17, 9-23, 16-30) | > 10000 nM | 3.5 nM | 
4 | CC[C@H](C)[C@@H]1NC(=O)[C@@H]2CSSC[C@@H]3NC(=O)[C@H](C(C)C)NC(=O)[C@H](CC(C)C)NC(=O)[C@H](CC(N)=O)NC(=O)[C@@H]4CCCN4C(=O)[C@H](CCCNC(=N)N)NC(=O)[C@H](CSSC[C@H](NC(=O)[C@@H](N)CC(=O)O)C(=O)N[C@@H](CC(C)C)C(=O)NCC(=O)N[C@@H](Cc4cccnc4)C(=O)N[C@@H](Cc4ccccc4)C(=O)N[C@@H](CCCNC(=N)N)C(=O)N[C@@H](CCCCN)C(=O)N2)NC(=O)[C@H](CSSC[C@@H](C(=O)N[C@@H](CCCCN)C(=O)N[C@@H](Cc2ccc(O)cc2)C(=O)N[C@H](C(=O)N[C@@H](Cc2ccccc2)C(N)=O)C(C)C)NC(=O)[C@H](Cc2c[nH]c4ccccc24)NC(=O)[C@H](CCCCN)NC(=O)[C@H](Cc2c[nH]cn2)NC(=O)[C@H]([C@@H](C)O)NC(=O)[C@H](CCCNC(=N)N)NC(=O)[C@H](CO)NC3=O)NC(=O)[C@H](CCCCN)NC(=O)[C@H](CC(=O)O)NC(=O)[C@H](CC(N)=O)NC(=O)[C@H](CC(=O)O)NC(=O)[C@@H]2CCCN2C1=O [[3Pal5;Phe6]GpTx-1(1-34)] (H-DCLG[3Pal]FRKCIPDNDKCCRPNLVCSRTHKWCKYVF-NH2; disulfide 2-17, 9-23, 16-30) | > 10000 nM | 63 nM | 
5 | CC[C@H](C)[C@@H]1NC(=O)[C@@H]2CSSC[C@@H]3NC(=O)[C@H](C(C)C)NC(=O)[C@H](CC(C)C)NC(=O)[C@H](CC(N)=O)NC(=O)[C@@H]4CCCN4C(=O)[C@H](Cc4ccccn4)NC(=O)[C@H](CSSC[C@H](NC(=O)[C@@H](N)CC(=O)O)C(=O)N[C@@H](CC(C)C)C(=O)NCC(=O)N[C@@H](Cc4ccccc4)C(=O)N[C@@H](CCSC)C(=O)N[C@@H](CCCNC(=N)N)C(=O)N[C@@H](CCCCN)C(=O)N2)NC(=O)[C@H](CSSC[C@@H](C(=O)N[C@@H](CCCCN)C(=O)N[C@@H](Cc2ccc(O)cc2)C(=O)N[C@H](C(=O)N[C@@H](Cc2ccccc2)C(N)=O)C(C)C)NC(=O)[C@H](Cc2c[nH]c4ccccc24)NC(=O)[C@H](CCCCN)NC(=O)[C@H](Cc2cnc[nH]2)NC(=O)[C@H]([C@@H](C)O)NC(=O)[C@H](CCCNC(=N)N)NC(=O)[C@H](CO)NC3=O)NC(=O)[C@H](CCCCN)NC(=O)[C@H](CC(=O)O)NC(=O)[C@H](CC(N)=O)NC(=O)[C@H](CC(=O)O)NC(=O)[C@@H]2CCCN2C1=O [[2PAL18]GpTx-1(1-34)] (H-DCLGFMRKCIPDNDKCC[2Pal]PNLVCSRTHKWCKYVF-NH2; disulfide 2-17, 9-23, 16-30) | 13700 nM | 3 nM | 
6 | CC[C@H](C)[C@@H]1NC(=O)[C@@H]2CSSC[C@@H]3NC(=O)[C@H](C(C)C)NC(=O)[C@H](CC(C)C)NC(=O)[C@H](CC(N)=O)NC(=O)[C@@H]4CCCN4C(=O)[C@H](CCCNC(=N)N)NC(=O)[C@H](CSSC[C@H](NC(=O)[C@@H](N)CC(=O)O)C(=O)N[C@@H](CC(C)C)C(=O)NCC(=O)N(C)CC(=O)N[C@@H](Cc4ccccc4)C(=O)N[C@@H](CCCNC(=N)N)C(=O)N[C@@H](CCCCN)C(=O)N2)NC(=O)[C@H](CSSC[C@@H](C(=O)N[C@@H](CCCCN)C(=O)N[C@@H](Cc2ccc(O)cc2)C(=O)N[C@H](C(=O)N[C@@H](Cc2ccccc2)C(N)=O)C(C)C)NC(=O)[C@H](Cc2c[nH]c4ccccc24)NC(=O)[C@H](CCCCN)NC(=O)[C@H](Cc2c[nH]cn2)NC(=O)[C@H]([C@@H](C)O)NC(=O)[C@H](CCCNC(=N)N)NC(=O)[C@H](CO)NC3=O)NC(=O)[C@H](CCCCN)NC(=O)[C@H](CC(=O)O)NC(=O)[C@H](CC(N)=O)NC(=O)[C@H](CC(=O)O)NC(=O)[C@@H]2CCCN2C1=O [[Sar5;Phe6]GpTx-1(1-34)] (H-DCLG[Sar]FRKCIPDNDKCCRPNLVCSRTHKWCKYVF-NH2; disulfide 2-17, 9-23, 16-30) | > 10000 nM | 25 nM | 
7 | CC[C@H](C)[C@@H]1NC(=O)[C@@H]2CSSC[C@@H]3NC(=O)[C@H](C(C)C)NC(=O)[C@H](CC(C)C)NC(=O)[C@H](CC(N)=O)NC(=O)[C@@H]4CCCN4C(=O)[C@H](CCCNC(=N)N)NC(=O)[C@H](CSSC[C@H](NC(=O)[C@@H](N)CC(=O)O)C(=O)N[C@@H](CC(C)C)C(=O)NCC(=O)N[C@@H](C(C)C)C(=O)N[C@@H](CC(C)C)C(=O)N[C@@H](CCCNC(=N)N)C(=O)N[C@@H](CCCCN)C(=O)N2)NC(=O)[C@H](CSSC[C@@H](C(=O)N[C@@H](CCCCN)C(=O)N[C@@H](Cc2ccc(O)cc2)C(=O)N[C@H](C(=O)N[C@@H](Cc2ccccc2)C(N)=O)C(C)C)NC(=O)[C@H](Cc2c[nH]c4ccccc24)NC(=O)[C@H](CCC(=O)O)NC(=O)[C@H](Cc2c[nH]cn2)NC(=O)[C@H]([C@@H](C)O)NC(=O)[C@H](CCCNC(=N)N)NC(=O)[C@H](CO)NC3=O)NC(=O)[C@H](CCCCN)NC(=O)[C@H](CC(=O)O)NC(=O)[C@H](CC(N)=O)NC(=O)[C@H](CC(=O)O)NC(=O)[C@@H]2CCCN2C1=O [[Val5;Leu6;Glu28]GpTx-1(1-34)] (H-DCLGVLRKCIPDNDKCCRPNLVCSRTHEWCKYVF-NH2; disulfide 2-17, 9-23, 16-30) | > 10000 nM | 86 nM | 
8 | CC[C@H](C)[C@@H]1NC(=O)[C@@H]2CSSC[C@@H]3NC(=O)[C@H](C(C)C)NC(=O)[C@H](CC(C)C)NC(=O)[C@H](CC(N)=O)NC(=O)[C@@H]4CCCN4C(=O)[C@H](CCCNC(=N)N)NC(=O)[C@H](CSSC[C@H](NC(=O)[C@@H](N)CC(=O)O)C(=O)N[C@@H](CC(C)C)C(=O)NCC(=O)N[C@@H](Cc4ccccc4)C(=O)N[C@@H](CCSC)C(=O)N[C@@H](CCCNC(=N)N)C(=O)N[C@@H](CCCCN)C(=O)N2)NC(=O)[C@H](CSSC[C@@H](C(=O)N[C@@H](CCCCN)C(=O)N[C@@H](Cc2ccc(O)cc2)C(=O)N[C@H](C(=O)N[C@@H](Cc2ccccc2)C(N)=O)C(C)C)NC(=O)[C@H](Cc2c[nH]c4ccccc24)NC(=O)[C@H](CCCCN)NC(=O)[C@H](Cc2c[nH]cn2)NC(=O)[C@H]([C@@H](C)O)NC(=O)[C@H](CCCNC(=N)N)NC(=O)[C@H](CO)NC3=O)NC(=O)[C@H](CCCCN)NC(=O)[C@H](CC(=O)O)NC(=O)[C@H](Cc2cccc3ccccc23)NC(=O)[C@H](CC(=O)O)NC(=O)[C@@H]2CCCN2C1=O [[1-Nal13]GpTx-1(1-34)] (H-DCLGFMRKCIPD[1Nal]DKCCRPNLVCSRTHKWCKYVF-NH2; disulfide 2-17, 9-23, 16-30) | 7330 nM |  | 2 nM
